This note sets out measurements from ChEMBL document CHEMBL2429809, “Novel peptide-doxorubucin conjugates for targeting breast cancer cells including the multidrug resistant cells” (J Med Chem, 2013).

Some results are limits rather than exact numbers.

The test system of data set [1] is HUVEC. The data set is described as follows: Cytotoxicity against human HUVEC cells after 48 hrs by MTT assay. It is filed as cell-based.
In data set [2] the test system is MDA-MB-435. The data set is described as follows: Ratio of IC50 for human MDA-MB-435 cells to IC50 for human MDA-MB-435 cells in presence of verapamil. The format is functional.
Data set [3] has as its system MDA-MB-435. The data set is described as follows: Cytotoxicity against doxorubicin-resistant multidrug-resistant human MDA-MB-435 cells after 48 hrs by MTT assay in presence of verapamil. The following applies: MDA-MB-435, 48 h. The format is functional, cell-based.
For data set [4], the system named is MCF-10A. The experiment in a line: Cytotoxicity against human MCF10A cells after 48 hrs by MTT assay. The format is cell-based.
The subject of data set [5] is MDA-MB-435. The data set is described as follows: Cytotoxicity against human MDA-MB-435 cells after 48 hrs by MTT assay. Particulars: MDA-MB-435, 48 h; call rule not given here. It is filed as functional, cell-based.
Data set [6] has as its system MCF-10A. The experiment in a line: Cellular uptake in human MCF10A cells at 5 uM after 2 hrs by FACS analysis. The format is ADME, cell-based.
The test system of data set [7] is HUVEC. The data set is described as follows: Cellular uptake in human HUVEC cells at 5 uM after 2 hrs by FACS analysis. The format is ADME, cell-based.
The subject of data set [8] is MCF7. The experiment in a line: Cellular uptake in human MCF7 cells at 5 uM after 2 hrs by FACS analysis in presence of NH2-WxEYAAQkFL-CONH2. It is filed as ADME, cell-based. The following applies: mcf7, 2 h.
Data set [9] has as its system MDA-MB-435. The experiment in a line: Cellular uptake in doxorubicin-resistant multidrug-resistant human MDA-MB-435 cells at 5 uM after 2 hrs by FACS analysis relative to doxorubicin. The format is ADME, cell-based. The following applies: mda-mb-435, 2 h.
In data set [10] the test system is MDA-MB-435. The data set is described as follows: Cytotoxicity against doxorubicin-resistant multidrug-resistant human MDA-MB-435 cells after 48 hrs by MTT assay. The following applies: MDA-MB-435, 48 h. It is filed as functional, cell-based.
The test system of data set [11] is MDA-MB-435. The experiment in a line: Cytotoxicity against human MDA-MB-435 cells after 48 hrs by MTT assay in presence of verapamil. It is filed as functional, cell-based. The following applies: MDA-MB-435, 48 h.
In data set [12] the test system is MCF7. The experiment in a line: Cytotoxicity against human MCF7 cells after 48 hrs by MTT assay. It is filed as functional, cell-based. Particulars: MCF7, 48 h.
The subject of data set [13] is MDA-MB-435. The experiment in a line: Ratio of IC50 for doxorubicin-resistant multidrug-resistant human MDA-MB-435 cells to IC50 for doxorubicin-resistant multidrug-resistant human MDA-MB-435 cells in presence of verapamil. It is filed as functional.
Data set [14] concerns MDA-MB-435. The experiment in a line: Cellular uptake in human MDA-MB-435 cells at 5 uM after 2 hrs by FACS analysis relative to control. It is filed as ADME, cell-based. Particulars: mda-mb-435, 2 h.
Data set [15] has as its system MCF7. The experiment in a line: Cellular uptake in human MCF7 cells at 5 uM after 2 hrs by FACS analysis relative to control. The format is ADME, cell-based. Particulars: mcf7, 2 h.
Data set [16] relates to MDA-MB-435. The data set is described as follows: Cytotoxicity against doxorubicin-resistant multidrug-resistant human MDA-MB-435 cells after 48 hrs by MTT assay relative to doxorubicin. The format is functional.
Data set [17] in a line: Half life in human serum at 100 uM after 48 hrs by RP-HPLC analysis. It is filed as ADME, cell-free.
Data set [18] relates to MDA-MB-435. The experiment in a line: Cellular uptake in doxorubicin-resistant multidrug-resistant human MDA-MB-435 cells at 5 uM after 2 hrs by FACS analysis. The format is ADME, cell-based. The following applies: mda-mb-435, 2 h.

`CCCC[C@@H](NC(=O)[C@@H](N)Cc1c[nH]c2ccccc12)C(=O)N[C@@H](CCC(=O)O)C(=O)N[C@@H](C)C(=O)N[C@@H](C)C(=O)N[C@@H](Cc1ccc(O)cc1)C(=O)N[C@@H](CCC(N)=O)C(=O)N[C@H](CCCCNC(=O)CCCC(=O)OCC(=O)[C@]1(O)Cc2c(O)c3c(c(O)c2[C@@H](O[C@H]2C[C@H](N)[C@H](O)[C@H](C)O2)C1)C(=O)c1c(OC)cccc1C3=O)C(=O)N[C@@H](Cc1ccccc1)C(=O)N[C@@H](CC(C)C)C(N)=O`: the IC50 is 50.9 µM in the data set on HUVEC [1]; 14.4 µM in the data set on MDA-MB-435 [3]; 40.5 µM with MCF-10A [4]; 18.6 µM in the data set with MDA-MB-435 [5]; 19.7 µM in the data set on MDA-MB-435 [10]; 15.5 µM in the data set on MDA-MB-435 [11]. The IC50 in the data set with MCF7 [12] came to 19.1 µM. Moreover, the “Ratio IC50” value in the data set on MDA-MB-435 [2] and in the data set with MDA-MB-435 [13] was 1.3 throughout. The Drug uptake entry in the data set with MCF-10A [6], in the data set on HUVEC [7], with MCF7 [8], in the data set on MDA-MB-435 [14] and in the data set on MCF7 [15] was “Active” in each case. Further, in the data set with MDA-MB-435 [9], the “fold change (FC)” value was found to be 3.
As for `CCCC[C@@H](NC(=O)[C@@H](N)Cc1c[nH]c2ccccc12)C(=O)N[C@@H](CCC(=O)O)C(=O)N[C@@H](C)C(=O)N[C@@H](C)C(=O)N[C@@H](Cc1ccc(O)cc1)C(=O)N[C@@H](CCC(N)=O)C(=O)N[C@H](CCCCNC(=O)CCCC(=O)N[C@H]1C[C@H](O[C@H]2C[C@](O)(C(=O)CO)Cc3c(O)c4c(c(O)c32)C(=O)c2c(OC)cccc2C4=O)O[C@@H](C)[C@H]1O)C(=O)N[C@@H](Cc1ccccc1)C(=O)N[C@@H](CC(C)C)C(N)=O`, the IC50 in the data set with HUVEC [1] came to 42.3 µM; with MDA-MB-435 [3], 3.1 µM; with MCF-10A [4], 35.1 µM; with MDA-MB-435 [5], 1.5 µM; in the data set on MDA-MB-435 [10] it was 5.4 µM; with MDA-MB-435 [11] it was 0.83 µM. For the same compound, in the data set with MCF7 [12], the IC50 came out at 0.9 µM. The results for the “Ratio IC50” value with MDA-MB-435 [2], with MDA-MB-435 [16] and in the data set with MDA-MB-435 [13] were 1.3, over 4 and 1.3, respectively. This compound showed a half-life at 100 µM in data set [17] of 2 h. For the same compound, the Drug uptake result with MCF-10A [6], with HUVEC [7], in the data set with MCF7 [8], in the data set with MDA-MB-435 [18], with MDA-MB-435 [14] and with MCF7 [15] was “Active” in each case. In the data set with MDA-MB-435 [9], the “fold change (FC)” value came to 4.7.
With `COc1cccc2c1C(=O)c1c(O)c3c(c(O)c1C2=O)C[C@@](O)(C(=O)CO)C[C@@H]3O[C@H]1C[C@H](N)[C@H](O)[C@H](C)O1` [DOXORUBICIN], the IC50 with HUVEC [1] was found to be 1.1 µM; with MDA-MB-435 [3], 1.56 µM; in the data set on MCF-10A [4], 1.2 µM; with MDA-MB-435 [5], 0.6 µM; with MDA-MB-435 [10], 21.9 µM; in the data set on MDA-MB-435 [11], 0.15 µM. In addition, the Drug uptake result in the data set with HUVEC [7] and in the data set with MCF7 [8] was “Active” in each case.
